Experimental data from US8178675B2, “Compounds for the treatment of metabolic disorders” (Wellstat Therapeutics Corporation, priority 2005, dated 2012).

Experiments:
[1] = test system: db/db mice; assay: Antidiabetic effects in db/db mouse model of type II diabetes (serum chemistry after 2 weeks daily oral dosing); assay type: in vivo
Excerpt: db/db mice have a defect in leptin signaling, leading to hyperphagia, obesity and diabetes. Moreover, unlike ob/ob mice on a C57BL/6J background, db/db mice on a C57BLKS background undergo failure of their insulin-producing pancreatic islet cells, resulting in progression from hyperinsulinemia (associated with peripheral insulin resistance) to hypoinsulinemic diabetes.
Male obese (db/db homozygote) C57BL/Ksola mice approximately 8 weeks of age, were obtained from Jackson Labs (Bar Harbor, Me.) and randomly assigned into groups of 5-7 animals such that the body weights (40-45 g) and serum glucose levels (≧300 mg/dl in fed state) were similar between groups; male lean (db/+ heterozygote) mice served as cohort controls. A minimum of 7 days was allowed for adaptation after arrival. All animals were maintained under controlled temperature (23° C.), relative humidity (50±5%) and light (7:00-19:00), and allowed free access to standard chow (Formulab Diet 5008, Quality Lab Products, Elkridge, Md.) and water.
Mice received daily oral doses of vehicle or Compound CW for 2 weeks. At the end of the treatment period 100 μl of venous blood was withdrawn in a heparinized capillary tube from the retro-orbital sinus for serum chemistry analysis. Mice were in the fed state at the time of blood sampling.

[2] = biological target: T1, human PPARα (Homo sapiens, UniProt Q07869); assay: Human PPARα transactivation assay (Gal4/PPAR-LBD, luciferase reporter); assay type: cell-based
T1 construct: expressed in transfected cells
T1 sequence (Q07869 167-468): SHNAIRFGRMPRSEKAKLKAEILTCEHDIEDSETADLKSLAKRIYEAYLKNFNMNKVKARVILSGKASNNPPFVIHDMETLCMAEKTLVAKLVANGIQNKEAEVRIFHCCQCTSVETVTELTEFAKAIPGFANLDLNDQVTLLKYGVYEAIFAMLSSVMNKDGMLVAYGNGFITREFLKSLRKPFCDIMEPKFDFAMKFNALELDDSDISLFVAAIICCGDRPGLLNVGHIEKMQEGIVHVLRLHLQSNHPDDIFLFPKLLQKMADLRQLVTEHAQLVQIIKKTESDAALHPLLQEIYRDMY
Excerpt: In order to examine the activity of Compound CW on PPARα, a transactivation assay was used. Transactivation assays take advantage of the modular domain structure of nuclear receptors. A fusion protein was made between the human or mouse PPAR ligand binding domain (PPAR-LBD) and the yeast Gal4 DNA binding domain (“activator plasmid”). The reporter gene construct consisted of the Gal4 DNA binding element in cis with a luciferase reporter. When an agonist binds the Gal4/PPAR-LBD, the fusion protein binds the Gal4 DNA binding element on the reporter gene resulting in transcription of the firefly luciferase gene. Luciferase oxidizes the substrate luciferin in an ATP-dependent reaction; the amount of light given off is a direct measure of the level of the enzyme and, consequently, of the activity of the ligand binding the PPAR-LBD.
The activator expressing plasmids contained a yeast GAL4 DNA-binding domain fused to the human PPARα ligand binding and hinge domains (a.a. 167-468). The reporter plasmid used was pFRLuc, which has the firefly luciferase gene under the control of a GAL4 UAS containing promoter (Stratagene (La Jolla, Calif.)).
One day prior to transfection, cells were seeded in 24-well plates at a density of 5×10^4-2×10^5 cells/well, depending upon the cell type. Cells were transfected using Lipofectamine 2000 reagent (Invitrogen (Calsbad, Calif.)). […]

[3] = after 2 weeks of daily oral dosing

Activity on human PPARα (type of agonism) ([2]; Gal4/human PPARα-LBD luciferase transactivation, 24 hours treatment, FIG. 1) | Maximal activity in transactivation assay ([2]; positive control, same experiment) | Structure (SMILES) | Glucose (serum glucose) ([1]; 100 mg/kg daily oral, 2 weeks, fed state, vehicle control 735 ± 66) [mg/dL] | Effect on blood glucose [1, 3] | Effect on serum triglycerides [1, 3] | Triglycerides ± SEM (serum triglycerides) ([1]; daily oral dosing 2 weeks, fed state, vehicle 221 ± 62) [mg/dL]
partial agonist | – | Cc1cccc(C)c1COc1cccc(C(C)C(=O)O)c1 (racemic) [Compound CW, 2-(3-(2,6-Dimethylbenzyloxy)-phenyl)-2-(R,S)-methylacetic acid] | 171 ± 66 | significant reduction | reduced | 109 ± 13
– | ~40,000 RLU | Cc1cccc(Nc2cc(Cl)nc(SCC(=O)O)n2)c1C [Wy-14,643, reference compound] | – | – | – | –
